Assay results from US20060134779A1, “Modulation of cell intrinsic strain to control cell modulus, matrix synthesis, secretion, organization, material properties and remodeling of tissue engineered constructs” (priority 2004, published 2006).
Entries after “also recorded” stand apart in the source; their conditions may differ.

Columns and labels:
[1] = tested on: elastin; assay: Quantitative RT-PCR gene expression in BATs: elastin; type: cell-based, human
Description: (§1) Primary human tendon internal fibroblasts (HTIFs) were isolated from discarded human tendon tissue as described previously (Banes et al., J. Ortho Res., 6, 73-82, 1988). HTIFs from passage 2 to 4 were used in this study. BATs™ were fabricated at a cell density of 2 million cells/ml collagen gel suspension (Vitrogen). Cells were incubated at 37° C. for 24 h before addition of 100 pM IL-1β and inhibitors. BAT™ images were recorded with a scanner and automated imaging software, ScanFlex™ (Flexcell International Corp.). Medium was refreshed every 24 h. On day 5, BATs™ were collected, total RNA extracted with an RNeasy mini kit (QIAGen), cDNA synthesized with SuperScriptII (Invitrogen) and quantitative PCR carried out using a quantitative PCR kit from Ambion. The PCR products were separated on 2% agarose gels and the bands were quantitated in Photoshop. The elasticity of BATs™ was tested on day 5. BATs™ were subjected to a maximum stretch (20% elongation, 1 Hz for 1 h) and the BAT™ images were recorded for 24 h after stretch.

[2] = tested on: human tendon internal fibroblast (HTIF)-populated bioartificial tendons (BATs); assay: Contraction of HTIF-populated BATs (scanner imaging); type: cell-based; conditions: 100 pM IL-1β, 24 h post addition
Description: as §1

[3] = tested on: human tendon internal fibroblast (HTIF)-populated bioartificial tendons (BATs); assay: Elasticity of BATs: length recovery after maximum stretch; type: cell-based; conditions: 100 pM IL-1β
Source text: In order to find a better therapeutic method for tendon/ligament repair and/or replacement, several in vitro models for engineered tendon have been developed recently (Awad et al., J. Biomed. Mater Res., 51(2), 233-240, 2000). One of them is a BioArtificial Tendon (BAT™) model system utilizing tenocyte-populated molded collagen gels (Awad et al., J. Biomed. Mater Res., 51(2), 233-240, 2000). This 3D BAT™ system allows the testing of tenocyte responses to drugs, cytokines and mechanical loading but is too weak to replace conventional grafts materials. In an attempt to modulate the material properties of the cell-gel composite, the influence of IL-1β on the elasticity of human tendon internal fibroblast (HTIF)-populated bioartificial tendons (BATs™) was investigated. IL-1β has been reported to increase the expression of matrix metalloproteinases (MMPs) and elastin. It was hypothesized that IL-1 might increase the elasticity of BATs™ by up-regulating the expression of elastin and down-regulating matrix protein (Collagen type I) expression. Gene expression was quantified with quantitative RT-PCR. The elasticity of BATs™ was determined by length recovery after stretch. The influence of IL-1β on the actin cytoskeleton and integrin attachment to matrix in BATs™ also was tested +/−cytochalasin D or GRGDTP, respectively.
as §1, with “BATs™ were fabricated at a cell density of 2 million cells/ml collagen gel suspension (Vitrogen). Cells were incubated at 37° C. for 24 h before addition of 100 pM IL-1β and inhibitors.” left out, “Medium was refreshed every 24 h.” left out, “The elasticity of BATs™ was tested on day 5.” left out

[4] = tested on: MMPs 1, 2, 3; assay: Quantitative RT-PCR gene expression in BATs: MMPs; type: cell-based, human; conditions: 100 pM IL-1β, day 5
Description: as §1

[5] = tested on: Collagen type I; assay: Quantitative RT-PCR gene expression in BATs: Collagen type I; type: cell-based, human; conditions: 100 pM IL-1β, day 5
Description: as §1

[6] = tested on: human tendon internal fibroblasts (HTIFs); assay: Young's modulus of HTIFs by micropipette aspiration; type: cell-based; conditions: young and adult patients (FIG. 13)
Description: (§2) Primary HTIFs were isolated after surgery from discarded human tendon tissue as described previously (Banes et al., J. Ortho Res., 6, 73-82, 1988). HTIFs from passage 2 to 4 were used in this study. HTIFs were allowed to attach and spread for 24 h before addition of 100 pM IL-1β. Medium was refreshed every 24 h. On day 5, cells were collected for cell modulus measurement and gene expression analysis. Young's modulus of HTIFs was measured by aspirating a cell into the bore of a calibrated micropipette with a calibrated vacuum source. The cell-aspiration process was videotaped for subsequent data analysis to calculate the pipette bore size, the steady state pressure required to aspirate a segment of a cell into the pipette bore and the time constant for aspiration. Cytoskeleton change was monitored by rhodamine-phalloidin staining. The expression levels of β-actin was determined by quantitative RT-PCR. Total RNA was extracted with an RNeasy mini kit (QIAGen), cDNA was synthesized with SuperScriptII (Invitrogen) and quantitative PCR was carried out using 18S rRNA as an internal control (Ambion). The PCR products were separated on 2% agarose gels and pixel intensity of the bands was quantitated in Photoshop.

[7] = tested on: β-actin; assay: β-actin expression by quantitative RT-PCR in HTIFs; type: cell-based, human; conditions: for reduction of the message of β-actin: 24 h post addition
Description: as §2, with “On day 5, cells were collected for cell modulus measurement and gene expression analysis.” left out

[8] = tested on: β-actin; assay: Cytoskeleton change by rhodamine-phalloidin staining in HTIFs; type: cell-based, human; conditions: 100 pM IL-1β
Description: as §2

[9] = tested on: human tendon internal fibroblast (HTIF) populated bioartificial tendons (BATs); assay: Material properties (modulus) of HTIF-populated BATs; type: cell-based
[10] = tested on: gel matrix; assay: Gel matrix contraction in a culture system; type: cell-based
[11] = tested on: cell modulus; conditions: cited from earlier work
[12] = 20% elongation, 1 Hz for 1 h, day 5

GRGDTP
elastin mRNA level ([1]; 100 μg/ml GRGDTP alone): did not affect
stimulation of elastin mRNA by IL-1 ([1]; 100 μg/ml GRGDTP with 100 pM IL-1β): reduced

interleukin-1beta [IL-1β]
contraction of BATs [2]: reduced
elasticity of BATs ([3]; tested on day 5): increased
survival of maximum stretch [3, 12]: survived
time for elongated BATs to recover to original length post stretch [3, 12]: 8 h
expression of MMPs 1, 2, 3 [4]: up-regulated; also recorded: up-regulation
expression of elastin ([1]; 100 pM IL-1β, day 5): up-regulated
expression of Collagen type I [5]: down-regulated
cell modulus of monolayer HTIFs [6]: reduced
reduction of the message of β-actin ([7]; 100 pM IL-1β, 2D cultures): more than 50%
reduction of the message of β-actin ([7]; 100 pM IL-1β, 3D cultures): more than 50%
message level of β-actin ([7]; 100 pM IL-1β, day 3, 3D cultures): returned to normal
expression of β-actin ([7]; 2D cultures, days 1 and 3 (FIG. 14A)): reduced
cells with cytoskeletal structure disrupted ([8]; 2D cultures): about 20%
protein level of β-actin ([8]; 2D cultures, day 3): further reduced
protein level of β-actin ([8]; 2D cultures, day 5): mostly recovered
increase of intercellular space at the perpendicular direction of BATs ([8]; 3D BATs, days 1 and 3): more than 100%
fluorescence intensity of rhodamine-phalloidin staining compared to control ([8]; 3D bioartificial tendons, day 5): much lower
protein level of β-actin ([8]; rhodamine-phalloidin staining): down regulated
modulus of BATs [9]: reduced

Nc1ncnc2c1ncn2[C@@H]1O[C@H](COP(=O)(O)OP(=O)(O)OP(=O)(O)O)[C@@H](O)[C@H]1O [ATP, adenosine triphosphate]
gel matrix contraction [10]: retard

C=C1[C@@H](C)[C@H]2[C@H](Cc3ccccc3)NC(=O)[C@]23[C@H](OC(C)=O)/C=C/[C@@](C)(O)C(=O)[C@@H](C)C/C=C/[C@H]3[C@@H]1O [cytochalasin D]
decrease of cell modulus [11]: up to three fold
